The values that follow come from ChEMBL document CHEMBL1255257, “Assessment of serum (1->3)-beta-D-glucan concentration as a measure of disease burden in a murine model of invasive pulmonary aspergillosis” (2008).

Calls of active or inactive are those of the source. No cut-off for these calls is given here.

For test [1], the system named is Aspergillus fumigatus. Nature of the test: Antifungal activity against Aspergillus fumigatus isolate AF 293 infected in ICR mouse assessed survival of the mouse at 40 mg/kg, po QD. Format: functional, organism-based. Further details: dose 40 mg/kg.
In test [2] the test system is Aspergillus fumigatus. Nature of the test: Antifungal activity against Aspergillus fumigatus isolate CEA 10 infected in ICR mouse assessed as decrease in (1-3)-beta-D-glucan concentration in serum at 40 mg/kg, po QD (RVb= 707 pg/ml). In kind it is functional, organism-based. Further details: dose 40 mg/kg.
Test [3] concerns Aspergillus fumigatus. The test is described as follows: Antifungal activity against Aspergillus fumigatus isolate AF 293 infected in ICR mouse assessed as pulmonary fungal burden at 40 mg/kg, po QD. Format: functional.
The test system of test [4] is Aspergillus fumigatus. The test is described as follows: Antifungal activity against Aspergillus fumigatus isolate CEA 10 infected in ICR mouse assessed survival of the mouse at 40 mg/kg, po QD. In kind it is functional, organism-based. Further details: dose 40 mg/kg.
Test [5] relates to Aspergillus fumigatus. The test is described as follows: Antifungal activity against Aspergillus fumigatus isolate AF 293 infected in ICR mouse assessed as decrease in (1-3)-beta-D-glucan concentration in serum at 40 mg/kg, po QD (RVb= 758 pg/ml). Format: functional, organism-based. Further details: dose 40 mg/kg.
The subject of test [6] is Aspergillus fumigatus. The test is described as follows: Antifungal activity against Aspergillus fumigatus isolate CEA 10 infected in ICR mouse assessed as pulmonary fungal burden at 40 mg/kg, po QD. In kind it is functional.

With `CC[C@@H]([C@H](C)O)n1ncn(-c2ccc(N3CCN(c4ccc(OC[C@@H]5CO[C@@](Cn6cncn6)(c6ccc(F)cc6F)C5)cc4)CC3)cc2)c1=O` [POSACONAZOLE], the outcome in the test with Aspergillus fumigatus [1], in the test with Aspergillus fumigatus [2], in the test on Aspergillus fumigatus [4] and with Aspergillus fumigatus [5] was Active. In addition, the figures for the “fold change (FC)” value in the test with Aspergillus fumigatus [3] and in the test with Aspergillus fumigatus [6] were 3.6 and 7.3, respectively.
